Results on 26 compounds are retold here after US7737155B2, “Nitrogen-containing heterocyclic compounds and methods of use thereof” (Schering Corporation, priority 2005, dated 2010).

One experiment deals with recombinant human nicotinic acid receptor (NAR) (Homo sapiens, UniProt Q8TDS4). Nature of the experiment: Nicotinic Acid Receptor Assay: inhibition of forskolin-stimulated cAMP accumulation in CHO cells (MesoScale Discovery cAMP kit). Type of experiment: cell-based. The settings on record: CHO cells expressing recombinant human NAR; forskolin-stimulated cAMP; read-out: NA EC50 camp. In outline: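 Compounds were diluted in PBS containing 6 μM forskolin and incubated with cells for 30 min at room temperature. cAMP was quantified by the MesoScale kit against an on-plate standard curve.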
Sequence of recombinant human nicotinic acid receptor (NAR) (Q8TDS4 whole entry): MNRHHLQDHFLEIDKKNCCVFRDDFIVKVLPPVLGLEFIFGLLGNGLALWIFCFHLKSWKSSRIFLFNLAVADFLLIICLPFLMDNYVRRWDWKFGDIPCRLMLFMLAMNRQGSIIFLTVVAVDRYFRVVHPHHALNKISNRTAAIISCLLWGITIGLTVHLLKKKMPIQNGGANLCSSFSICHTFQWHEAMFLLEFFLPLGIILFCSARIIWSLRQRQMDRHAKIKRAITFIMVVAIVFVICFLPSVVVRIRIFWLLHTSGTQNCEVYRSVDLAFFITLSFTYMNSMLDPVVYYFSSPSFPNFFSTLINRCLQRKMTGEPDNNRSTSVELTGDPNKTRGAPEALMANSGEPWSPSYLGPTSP
For `CCc1cc(=O)oc2nc(OCc3ccccc3-c3cccc(Cl)c3)[nH]c(=O)c12` [Compound 554], the EC50 is over 1000 nM.
The same measure, in the same setting: the same measure for `COc1ccc(-c2ccc(Cc3cc(=O)oc4[nH]c(=O)[nH]c(=O)c34)cc2)cc1` [Compound 207]: over 1000 nM; for `CCc1cc(=O)oc2nc(OCc3ccccc3-c3ccc(F)c(C#N)c3)[nH]c(=O)c12` [Compound 584]: 100 to 1000 nM.
The same measure, in the same setting: the same measure for `CCCCc1c(-c2ccc(Cl)cc2)c(=O)oc2[nH]c(=O)[nH]c(=O)c12` [Compound 705]: over 1000 nM.
On the same count and under the same terms, the same measure for `CCc1cc(=O)oc2nc(OCc3cc(C)n(C)n3)[nH]c(=O)c12` [Compound 530]: 100 to 1000 nM.
`CCc1cc(=O)oc2nc(OCC#CC(C)O)[nH]c(=O)c12` (centres unmarked) [Compound 644]: the EC50 was in the range of 0.001 to 100 nM.
Same read-out and setting: the same measure for `COCC#CCOc1nc2oc(=O)cc(Cc3ccc(F)cc3)c2c(=O)[nH]1` [Compound 661]: 100 to 1000 nM.
Same read-out and setting: the same measure for `CCc1cc(=O)oc2nc(OCc3cc(C)c(OC)c(C)n3)[nH]c(=O)c12` [Compound 511]: over 1000 nM.
For `O=c1cc(CCCc2cccs2)c2c(=O)n(C3CCC3)c(=O)[nH]c2o1` [Compound 281], the EC50 fell in the range of 100 to 1000 nM.
Regarding `CC(C)(C)OC(=O)N1CCC(Cc2cc(=O)oc3[nH]c(=O)[nH]c(=O)c23)CC1` [Compound 221], the EC50 is over 1000 nM.
As to `CCc1cc(=O)oc2nc(OCc3ccc(-c4ccccn4)s3)[nH]c(=O)c12` [Compound 648], the half-maximal effective concentration (EC50) was 100 to 1000 nM.
On the same count and under the same terms, the same measure for `CCc1cc(=O)oc2nc(OCc3cccc(-c4ccccc4Cl)c3)[nH]c(=O)c12` [Compound 564]: 100 to 1000 nM.
On the same count and under the same terms, the same measure for `CC/C=C\CCc1cc(=O)oc2c1c(=O)[nH]c(=O)n2CC1CC1` [Compound 253]: over 1000 nM; for `CCc1noc(C)c1COc1nc2oc(=O)cc(CCC(C)C)c2c(=O)[nH]1` [Compound 688]: 100 to 1000 nM; for `CCCC/C=C/c1c(CC)c2c(=O)[nH]c(=O)[nH]c2oc1=O` [Compound 214]: over 1000 nM.
The same measure, in the same setting: the same measure for `CCCC(C)c1cc(=O)oc2[nH]c(=O)[nH]c(=O)c12` (centres unmarked) [Compound 218]: 100 to 1000 nM.
For `O=c1[nH]c(=O)c2c(CC3CC3)cc(=O)oc2[nH]1` [Compound 206], the EC50 fell in the range of 100 to 1000 nM.
Same read-out and setting: the same measure for `CCOc1nc2oc(=O)cc(CCC(C)C)c2c(=O)[nH]1` [Compound 686]: 100 to 1000 nM.
Still for that read-out and setting: the same measure for `CCc1cc(=O)oc2nc(O[C@H](C)C#CC(=O)OCc3ccccc3)[nH]c(=O)c12` [Compound 635]: over 1000 nM.

Still in this experiment, the particulars now being: NA EC50 camp (nM), CHO cells expressing recombinant human NAR; forskolin-stimulated cAMP.
Turning to `CCC#CCOc1nc2oc(=O)cc(CC)c2c(=O)[nH]1` [Compound 512], the concentration giving a half-maximal response (EC50) fell in the range of 0.001 to 100 nM.
As to `CCc1cc(=O)oc2nc(OCC#CCCO)[nH]c(=O)c12` [Compound 658], the half-maximal effective concentration (EC50) fell in the range of 100 to 1000 nM.

The experiment is the same for the next values; noted with them: inhibition of forskolin-stimulated cAMP accumulation, CHO cells expressing recombinant human NAR; read-out: NA EC50 camp.
As to `COn1c(=O)[nH]c2oc(=O)cc(CCC3CCC3)c2c1=O` [Compound 769], the EC50 was determined as 19 nM.
Still for that read-out and setting: the same measure for `CCn1c(=O)[nH]c2oc(=O)cc(CCC3CCC3)c2c1=O` [Compound 783]: 64 nM; for `CC1CCC(Cc2cc(=O)oc3[nH]c(=O)[nH]c(=O)c23)CC1` (centres unmarked) [Compound 127]: 57.3 nM; for `CCCC#CCOc1nc2oc(=O)cc(CCC3CC3)c2c(=O)[nH]1` [Compound 721]: 226 nM.
Still for that read-out and setting: the same measure for `CCCCc1cc(=O)oc2[nH]c(=O)nc(OCC(F)F)c12` [Compound 828]: 407 nM.

One may read the EC50 as the concentration giving half of the maximal effect.
